Reference: US10806729B2, “Quinoline derivatives for use in the treatment or prevention of viral infection” (ABIVAX, priority 2015, dated 2020)

Columns and labels:
HIV-1 strain Ada-MR5 = assay: HIV-1 p24 production in infected activated PBMCs (ELISA); assay type: cell-based; conditions: stimulated PBMCs, supernatant 6 days post-infection, increasing concentrations
Text: FIG. 1. Potency of quinoline derivatives to inhibit HIV-1 production in PBMC- and macrophages-infected cells. […] Each point represents 6 donors. B) HIV-1 strain YU2 was used to infect triplicate of monocyte derived-macrophages from different donors in the absence or presence of increasing concentrations of Compound 22. […] Each point represents 8 donors.
Buffy coats from HIV-negative individuals were obtained from the local blood donation center in Zurich, Switzerland (http://www.blutspendezurich.ch/) and Centre de transfusion sanguine Montpellier. Human peripheral blood mononuclear cells (PBMCs) were isolated by Ficoll (Axis-Shield PoC AS) gradient centrifugation. The cells have then been cultivated at 37° C., 5% CO2 to a density of 1×10^6 cells/mL in RPMI Glutamax medium (Life Technologies Ref 61870-010) supplemented with 10% fetal calf serum (FCS) (Thermo Fischer Ref SV30160.03), 1000 U/mL of IL2 (Peprotech Ref 200-02) and 5 μg/mL of PHA (Roche Ref 1249738) for activation. Three days later, cells have been pooled and resuspended to a density of 1×10^6 cells/mL in RPMI Glutamax medium supplemented with 10% fetal calf serum (FCS) 1000 U/mL of IL-2 for infection. HIV-1 infection has been performed with 10 μg of Ada-M R5 HIV strain per mL of cells for 4 hours. […]
Cells were treated with 0.01 μM up to 30 μM and p24 antigen levels were monitored in culture supernatant over a 12 day period. […]

JRCSF HIV-1 strain = assay: Reconstituted SCID mice infected with JRCSF HIV-1 strain; assay type: in vivo, mouse
Procedure: FIG. 3. Efficacy of Compound 22 to inhibit viral replication in humanized mice. A) Reconstituted SCID mice were infected with JRCSF HIV-1 strain by intraperitoneal injection. Control group received by gavage labrafil and 5% DMSO (n=15) and treated group 20 mg/kg b.i.d of Compound 22 in labrafil and 5% DMSO (n=14) for 15 days. Two independent experiments were performed with 5 and 10 reconstituted mice for each group. Viral load was assessed by measuring viral RNA using the Amplicor HIV-1 Monitor from Roche. B) FACS analysis was performed on peritoneal wash at day 15 post-treatment to assess the CD8/CD4 ratio. C) Engrafted NSG humanized mice were treated by oral gavage with Compound 22 at either 20 mg or 40 mg/kg once a day for 30 days and indicated lymphocyte populations (CD45+; CD4+ and CD8+) were monitored by FACS analysis. D) NSG humanized mice were infected with the YU2 HIV-1 virus and treated either by oral gavage with Compound 22 at 40 mg/kg once a day for 30 days or by HAART (3TC-Tenofovir-Raltegravir and AZT). […] Viral load was assessed by measuring viral RNA using the Amplicor HIV-1 Monitor from Roche. […]
Briefly, TCID50 (tissue culture infectious dose 50%) was determined by infecting human CD8+ T-cell-depleted peripheral blood mononuclear cells (PBMCs) from three donors which were stimulated by addition of IL-2, PHA and anti-CD3 beads (Dynal 11131D, Life Technologies). […] HIV RNA plasma levels were measured by RT-PCR (Amplicor HIV-1 test or AmpliPrep/COBAS TaqMan HIV-1 Test, Roche) at various times after infection.
Cell suspensions were labeled with anti-human monoclonal antibodies (mAb) targeting the following cell-surface markers: CD45-FITC, CD3-PE, CD4-Pe Cy7, CD8-BV421 and CD19-APC (all from Biolegend). Washing and reagent dilutions were done with FACS buffer (PBS containing 2% fetal calf serum and 0.05% sodium azide (NaN3). All acquisitions were performed on a Cyan ADP (Beckman Coulter) flow cytometer. Data were analyzed with FlowJo software (Ashland, Oreg.). Cellular debris and dead cells were excluded by their light-scattering characteristics.

YU2 HIV-1 virus = assay: NSG humanized mice infected with YU2 HIV-1 virus, viral load; assay type: in vivo, mouse
Procedure: All manipulations of NSG-HIS mice were performed under laminar flow. Gavage of mice was performed daily with a stainless steel gavage needle (Straight 22 Gauge, 1.4 inch in length). […] Mice were monitored three times a week for symptoms or signs of adverse events, according to a standard score sheet.
Mice were infected intraperitoneally i.p. with JR-CSF, 1×10^3 TCID50 per mouse and HIV YU-2, 1×106 TCID50 per mouse. HIV RNA plasma levels were measured by RT-PCR (Amplicor HIV-1 test or AmpliPrep/COBAS TaqMan HIV-1 Test, Roche) at various times after infection.

[1] = 20 mg/kg twice a day, FACS at day 15

FC(F)(F)Oc1ccc(Nc2ccc3cccc(Cl)c3n2)cc1 [Compound 22, 8-chloro-N-(4-(trifluoromethoxy)phenyl)quinolin-2-amine]
inhibition of HIV-1 replication (p24 antigen) (HIV-1 strain Ada-MR5): dose dependent inhibition
viral load (viral RNA) (JRCSF HIV-1 strain; 20 mg/kg twice a day oral gavage, 15 days of treatment): significantly reduce the viral load
CD8+/CD4+ ratio (JRCSF HIV-1 strain; [1]): restores CD8+/CD4+ ratio back to that of non-infected mice
depletion of CD4+ cells following infection (JRCSF HIV-1 strain; [1]): prevents depletion of CD4+ cells
viral load during treatment (YU2 HIV-1 virus; 40 mg/kg daily, 30 days of treatment): reduced the viral load
time the viral load remained low after treatment termination (YU2 HIV-1 virus; after 30 days of treatment): at least 50 days
